Data published in patent publication EP1184374A1, “Carboxamide derivatives of pyrrolidine, piperidine and hexahydroazepine for the treatment of thrombosis disorders” (ORTHO PHARMACEUTICAL CORPORATION, priority 1996, dated 1997).
“And” between values parts separate entries of the source, which are not always exact repeats. Equal entries are not always repeated.

Legend:
gel-filtered platelets = experiment: In vitro inhibition of thrombin-induced gel-filtered platelet aggregation; type: cell-based; conditions: Homo sapiens; for inhibition at 50 µM: read-out: Platelet Aggregation % Inh. (50µM)
Method: IN VITRO INHIBITION OF THROMBIN-INDUCED GEL-FILTERED PLATELET AGGREGATION ASSAY.
The percentage of platelet aggregation is calculated as an increase in light transmission of compound-treated platelet concentrate vs. control-treated platelet concentrate. Human blood is obtained from drug free, normal donors into tubes containing 0.13M sodium citrate. Platelet rich plasma (PRP) is collected by centrifugation of whole blood at 200 x g for 10 min at 25°C. The PRP (5 mL) is gel filtered through Sepharose 2B (bed volume 50 mL), and the platelet count is adjusted to 2x10^7 platelets per sample. The following constituents are added to a siliconized cuvette: concentrated platelet filtrate and Tyrode's buffer (0.14M NaCl, 0.0027MKCl, 0.012M NaHCO3, 0.76 mM Na2HPO4, 0.0055M glucose, 2 mg/mL BSA and 5.0mM HEPES @ pH 7.4) in an amount equal to 350 µl, 50 µl of 20 mM calcium and 50 µl of the test compound. Aggregation is monitored in a BIODATA aggregometer for the 3 min following the addition of agonist (thrombin 50 µl of 1 unit/mL).

[1] = tested on: collagen- or ADP-induced ex vivo platelet aggregation; experiment: Ex vivo dog study (platelet aggregation, hemodynamics, bleeding time, coagulation, cell counts); type: in vivo, dogs
Method: Adult mongrel dogs (8-13 kg) were anesthetized with sodium pentobarbital (35 mg/kg, i.v.) and artificially respired. Arterial blood pressure and heart rate were measured using a Millar catheter-tip pressure transducer inserted in a femoral artery. Another Millar transducer was placed in the left ventricle (LV) via a carotid artery to measure LV end diastolic pressure and indices of myocardial contractility. A lead II electrocardiogram was recorded from limb electrodes. Catheters were placed in a femoral artery and vein to sample blood and infuse drugs, respectively. Responses were continuously monitored using a Modular Instruments data aquisition system.
Arterial blood samples (5-9 ml) were withdrawn into tubes containing 3.8% sodium citrate to prepare platelet rich plasma (PRP) and to determine effects on coagulation parameters: prothrombin time (PT) and activated partial thromboplastin time (APTT). Separate blood samples (1.5 ml) were withdrawn in EDTA to determine hematocrit and cell counts (platelets, RBC's and white cells). Template bleeding times were obtained from the buccal surface using a symplate incision devise and Whatman filter paper.
Aggregation of PRP was performed using a BioData aggregometer. Aggregation of whole blood used a Chronolog impedance aggregometer. PT and APTT were determined on either a BioData or ACL 3000+ coagulation analyser. Cells were counted with a Sysmex K-1000.
Compounds were solubilized in a small volume of dimethylformamide (DMF) and diluted with saline to a final concentration of 10% DMF. Compounds were administered by the intravenous route with a Harvard infusion pump. Doses was administered over a 15 min interval at a constant rate of 0.33 ml/min. Data were obtained after each dose and in 30 min intervals following the end of drug administration. Oral doses were administered as aqueous solutions via syringe.

GPIIb/IIIa = GPIIb/IIIa (Homo sapiens, UniProt P05106+P08514); experiment: In vitro solid phase purified glycoprotein IIb/IIIa binding assay (biotinylated fibrinogen binding); conditions: for inhibition at 50 µM: read-out: Fibrinogen Binding % Inh. (50 µM)
Chain of GPIIb/IIIa (P08514 32-887 limits assumed): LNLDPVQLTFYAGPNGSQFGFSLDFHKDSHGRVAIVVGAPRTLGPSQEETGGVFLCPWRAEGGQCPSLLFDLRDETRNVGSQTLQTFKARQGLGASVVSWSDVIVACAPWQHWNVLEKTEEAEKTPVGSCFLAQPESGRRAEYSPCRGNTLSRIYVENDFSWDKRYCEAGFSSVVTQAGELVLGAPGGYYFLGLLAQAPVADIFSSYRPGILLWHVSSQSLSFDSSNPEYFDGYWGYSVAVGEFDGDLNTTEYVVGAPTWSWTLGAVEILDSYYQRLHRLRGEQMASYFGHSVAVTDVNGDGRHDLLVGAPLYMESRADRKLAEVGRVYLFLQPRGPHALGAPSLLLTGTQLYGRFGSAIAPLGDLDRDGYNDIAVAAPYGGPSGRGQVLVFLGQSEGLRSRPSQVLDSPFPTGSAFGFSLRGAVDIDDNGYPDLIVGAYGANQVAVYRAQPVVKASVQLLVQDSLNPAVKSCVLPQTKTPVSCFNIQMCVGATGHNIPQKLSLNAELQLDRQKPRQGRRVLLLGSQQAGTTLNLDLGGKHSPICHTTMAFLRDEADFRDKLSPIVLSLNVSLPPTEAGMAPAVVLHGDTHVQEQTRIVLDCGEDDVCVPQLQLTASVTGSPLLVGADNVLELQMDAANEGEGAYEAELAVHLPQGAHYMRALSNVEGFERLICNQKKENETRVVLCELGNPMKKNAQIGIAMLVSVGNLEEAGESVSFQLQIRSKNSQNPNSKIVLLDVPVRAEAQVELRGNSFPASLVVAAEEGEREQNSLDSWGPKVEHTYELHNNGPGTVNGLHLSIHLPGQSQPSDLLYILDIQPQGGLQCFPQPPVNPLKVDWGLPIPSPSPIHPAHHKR
Chain of GPIIb/IIIa (P08514 891-1039 partner limits assumed): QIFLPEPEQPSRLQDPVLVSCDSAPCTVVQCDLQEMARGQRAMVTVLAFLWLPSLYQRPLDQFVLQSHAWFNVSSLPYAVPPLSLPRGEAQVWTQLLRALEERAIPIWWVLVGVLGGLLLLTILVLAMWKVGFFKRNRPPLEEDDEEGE
Chain of GPIIb/IIIa (P05106 27-788): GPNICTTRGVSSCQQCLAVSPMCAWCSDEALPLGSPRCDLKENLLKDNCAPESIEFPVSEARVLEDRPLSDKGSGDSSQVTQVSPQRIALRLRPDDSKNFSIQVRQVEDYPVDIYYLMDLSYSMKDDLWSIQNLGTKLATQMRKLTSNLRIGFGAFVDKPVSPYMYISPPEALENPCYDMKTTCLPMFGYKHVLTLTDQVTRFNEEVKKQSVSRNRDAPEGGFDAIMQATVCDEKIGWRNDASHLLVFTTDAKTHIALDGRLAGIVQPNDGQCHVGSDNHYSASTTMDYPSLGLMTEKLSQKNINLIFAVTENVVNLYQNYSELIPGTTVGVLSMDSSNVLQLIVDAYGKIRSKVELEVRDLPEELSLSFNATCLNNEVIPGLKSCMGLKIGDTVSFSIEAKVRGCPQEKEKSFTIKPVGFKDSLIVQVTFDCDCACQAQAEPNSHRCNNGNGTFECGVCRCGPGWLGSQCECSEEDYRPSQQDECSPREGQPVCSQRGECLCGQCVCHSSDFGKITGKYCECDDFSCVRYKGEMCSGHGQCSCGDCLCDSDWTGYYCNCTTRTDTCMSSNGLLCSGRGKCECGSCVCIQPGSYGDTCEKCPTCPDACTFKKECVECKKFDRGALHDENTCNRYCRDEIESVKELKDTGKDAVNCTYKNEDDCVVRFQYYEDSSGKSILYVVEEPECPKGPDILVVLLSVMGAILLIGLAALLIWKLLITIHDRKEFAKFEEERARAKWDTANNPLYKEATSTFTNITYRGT
Method: IN VITRO SOLID PHASE PURIFIED GLYCOPROTEIN IIB/IIIA BINDING ASSAY.
The plate is covered and incubated overnight at 4°C. The GPIIb/IIa solution is discarded and 150 µl of 5% BSA is added and incubated at RT for 1-3 h. The plate is washed extensively with modified Tyrodes buffer. Biotinylated fibrinogen (25 µl/well) at 2 x final concentration is added to the wells that contain the test compounds (25 µl/well). The plate is covered and incubated at RT for 2-4 h. Twenty minutes prior to incubation completion, one drop of Reagent A (Vecta Stain ABC Horse Radish Peroxidase kit, Vector Laboratories, Inc.) and one drop Reagent B are added with mixing to 5 mL modified Tyrodes buffer mix and let stand. The ligand solution is discarded and the plate washed (5 x 200 µl/well) with modified Tyrodes buffer. Vecta Stain HRP-Biotin-Avidin reagent (50 µl/well, as prepared above) is added and incubated at RT for 15 min. The Vecta Stain solution is discarded and the wells washed (5 x 200 µl/well) with modified Tyrodes buffer. Developing buffer (10 mL of 50 mM citrate/phosphate buffer @ pH 5.3, 6 mg o-phenylenediamine, 6 µl 30% H2O2; 50 µl/well) is added and incubated at RT for 3-5 min, and then 2N H2SO4 (50 µl/well) is added. The absorbance is read at 490 nm.

thrombus formation = experiment: Canine arteriovenous shunt model of thrombosis; type: in vivo
Method: For instance, compound 16 inhibits thrombus formation at 10, 30, and 100 µg/kg/min cumulative doses by iv infusion (75%, 37%, 12% of thrombus weight vs. vehicle control, respectively). Compound 18 inhibits thrombus formation at 3, 10, and 30 µg/kg/min cumulative doses by iv infusion (82%, 41%, 12% of thrombus weight vs. vehicle control, respectively).

platelet aggregation = conditions: L. Alig, J. Med. Chem. 1992, 35, 4393; read-out: IC50 against in vitro thrombin-induced platelet aggregation; cited from earlier work
[2] = 10 µg/kg/min cumulative dose by iv infusion
[3] = 30 µg/kg/min cumulative dose by iv infusion

Row | Structure (SMILES) | IC50 (gel-filtered platelets) [nM] | inhibition at 50 µM (gel-filtered platelets) [%] | inhibition at 50 µM (GPIIb/IIIa) [%] | Duration of >50% inhibition of collagen-induced ex vivo platelet aggregation ([1]; intravenous dosing 0.3 mpk) [min] | Duration of >50% inhibition of collagen-induced ex vivo platelet aggregation ([1]; oral dosing 3 mpk) [min] | also measured
1 | O=C(O)CC(NC(=O)C1CCCN(C(=O)CCC2CCNCC2)C1)c1ccc2c(c1)OCO2 [Compound 16, N-3-(4-Piperidinepropionyl)-R-(-)-nipecotyl-[(S)-3-amino-3-(3,4-methylenedioxyphenyl)]propionic acid] | 28 | 94 | 100 |  |  | Duration of >50% inhibition of collagen- or ADP-induced ex vivo platelet aggregation ([1]; intravenous dosing 0.1 mpk): 60 min; Duration of >50% inhibition of collagen- or ADP-induced ex vivo platelet aggregation ([1]; oral dosing 1 mpk): 60 min; Duration of >50% inhibition of collagen- or ADP-induced ex vivo platelet aggregation ([1]; oral dosing 3 mpk): >180 min; IC50 (GPIIb/IIIa): 0.5 nM; % of thrombus weight vs. vehicle control (thrombus formation; [2]): 75%; % of thrombus weight vs. vehicle control (thrombus formation; [3]): 37%; % of thrombus weight vs. vehicle control (thrombus formation; 100 µg/kg/min cumulative dose by iv infusion): 12%
2 | O=C(O)C[C@H](NC(=O)[C@@H]1CCCN(C(=O)CCC2CCNCC2)C1)c1cnc2ccccc2c1 [Compound 18, N-3-(4-Piperidinepropionyl)-R-(-)-nipecotyl-[(S)-3-amino-3-(3-quinolinyl)]propionic acid] | 19 | 100 | 100 |  |  | Duration of >50% inhibition of collagen- or ADP-induced ex vivo platelet aggregation ([1]; intravenous dosing 0.1 mpk): 30 min; Duration of >50% inhibition of collagen- or ADP-induced ex vivo platelet aggregation ([1]; oral dosing 1 mpk): 150 min; % of thrombus weight vs. vehicle control (thrombus formation; 3 µg/kg/min cumulative dose by iv infusion): 82%; % of thrombus weight vs. vehicle control (thrombus formation; [2]): 41%; % of thrombus weight vs. vehicle control (thrombus formation; [3]): 12%
3 | O=C(O)C[C@H](NC(=O)[C@@H]1CCCN(C(=O)CCC2CCNCC2)C1)c1cccnc1 [Compound 21, N-3-(4-Piperidinepropionyl)-R-(-)-nipecotyl-[(S)-3-amino-3-(3-pyridyl)] propionic acid] | 60 | 100 | 100 |  |  | Duration of >50% inhibition of collagen- or ADP-induced ex vivo platelet aggregation ([1]; intravenous dosing 0.3 mpk): 150 min; Duration of >50% inhibition of collagen- or ADP-induced ex vivo platelet aggregation ([1]; oral dosing 1 mpk): 180 min
4 | COc1cccc(NC(=O)N[C@@H](CNC(=O)[C@@H]2CCCN(C(=O)CCC3CCNCC3)C2)C(=O)O)c1 [Compound 22, N-3-(4-Piperidinepropionyl)-R-(-)nipecotyl-[(S)-2-(3-methoxyanilino)carbonylamino-3-amino]propionic acid] | 46 | 94 | 100 | 180 | 60 | 
5 | O=C(N[C@@H](CNC(=O)[C@@H]1CCCN(C(=O)CCC2CCNCC2)C1)C(=O)O)OCc1ccccc1 [Compound 23, N-3-(4-Piperidinepropionyl)-R-(-)nipecotyl-[(S)-2-benzyloxycarbonylamino-3-amino]propionic acid] | 27 | 97 | 100 |  | 150 | Duration of >50% inhibition of collagen-induced ex vivo platelet aggregation ([1]; intravenous dosing 0.1 mpk): 60 min; Duration of >50% inhibition of collagen-induced ex vivo platelet aggregation ([1]; oral dosing 1 mpk): 180 min
6 | O=C(N[C@@H](CNC(=O)[C@@H]1CCCN(C(=O)CCC2CCNCC2)C1)C(=O)O)OCc1cccc(Cl)c1 [Compound 24, N-3-(4-Piperidinepropionyl)-R-(-)nipecotyl-[(S)-2-(3-chlorobenzyloxy)carbonylamino-3-amino]propionic acid] | 18 | 100 | 100 | 90 | 120 | IC50 (GPIIb/IIIa): 0.4 nM
7 | O=C(NC[C@H](NS(=O)(=O)Cc1ccccc1)C(=O)O)[C@@H]1CCCN(C(=O)CCC2CCNCC2)C1 [Compound 25, N-3-(4-Piperidinepropionyl)-R-(-)nipecotyl-[(S)-2-benzylsulfonylamino-3-amino]propionic acid] | 7 | 97 | 100 | 30 | 60 | 
8 | COc1cc(NC(=O)N[C@@H](CNC(=O)[C@@H]2CCCN(C(=O)CCC3CCNCC3)C2)C(=O)O)cc(OC)c1 [Compound 26, N-3-(4-Piperidinepropionyl)-R-(-)nipecotyl-[(S)-2-(3,5-dimethoxyanllino)carbonylamino-3-amino]propionic acid] | 16 | 97 | 100 |  | 60 | 
9 | O=C(O)C[C@H](NC(=O)[C@@H]1CCCN(C(=O)N2CCC(C3CCNCC3)CC2)C1)c1cccnc1 [Compound 27, N-[(4,4'-Bipiperidin-1-yl-)carbonyl]-R-(-)-nipecotyl-[(S)-3-amino-3-(3-pyridyl)] propionic acid] | 450 | 100 | 100 | 60 | 120 | 
10 | O=C(Nc1ccc2ccccc2c1)N[C@@H](CNC(=O)[C@@H]1CCCN(C(=O)CCC2CCNCC2)C1)C(=O)O [Compound 28, N-3-(4-Piperidinepropionyl)-R-(-)nipecotyl-[(S)-2-(2-naphthylamino)carbonylamino-3-amino]propionic acid] | 170 | 100 | 100 |  | 120 | 
11 | O=C(NCCc1ccccc1)N[C@@H](CNC(=O)[C@@H]1CCCN(C(=O)CCC2CCNCC2)C1)C(=O)O [Compound 30, N-3-(4-Piperidinepropionyl)-R-(-)nipecotyl-[(S)-2-(2-phenethylamino)carbonylamino-3-amino]propionic acid] | 190 | 100 | 100 | 105 | 180 | 
12 | Cc1ccc([C@H](CC(=O)O)NC(=O)[C@@H]2CCCN(C(=O)CCC3CCNCC3)C2)cn1 [Compound 31, N-3-(4-Piperidinepropionyl)-R-(-)nipecotyl-[(S)-3-amino-3-(6-methyl-3-pyridyl)]propionic acid] | 45 | 100 | 100 |  |  | Duration of >50% inhibition of collagen-induced ex vivo platelet aggregation ([1]; intravenous dosing 0.3 mpk, 0.3 mg/kg): 120 min and 60 min; Duration of >50% inhibition of collagen-induced ex vivo platelet aggregation ([1]; oral dosing 3 mpk, 3 mg/kg): >180 min and 180 min
13 | CN(CC(=O)c1ccc(OCC(=O)O)c(OCC(=O)O)c1)C(=O)c1ccc(C(=N)N)cc1 [Ro-438857] |  |  |  |  |  | IC50 (platelet aggregation): 94 nM
